Assay results taken from patent publication US9637472B2, “Substituted 6,5-fused bicyclic heteroaryl compounds” (Epizyme, Inc., priority 2011, dated 2017).

Biological target: EZH2 (Homo sapiens (Human), UniProt Q15910)
Experiment: PRC2 enzyme assay on peptide substrates
Format: biochemical
Conditions: PRC2 enzyme assays on peptide substrates; 4 nM enzyme, 30 min preincubation at 25° C.; read-out: EZH2 IC50
Text: General Materials. S-adenosylmethionine (SAM), S-adenosylhomocyteine (SAH), bicine, KCl, Tween20, dimethylsulfoxide (DMSO) and bovine skin gelatin (BSG) were purchased from Sigma-Aldrich at the highest level of purity possible. Dithiothreitol (DTT) was purchased from EMD. ^3H-SAM was purchased from American Radiolabeled Chemicals with a specific activity of 80 Ci/mmol. 384-well streptavidin Flashplates were purchased from PerkinElmer.
Substrates. […] The sequences are listed below.
Recombinant PRC2 Enzymes. Human PRC2 enzymes were purified as 4-component enzyme complexes co-expressed in Spodoptera frugiperda (sf9) cells using a baculovirus expression system. The subunits expressed were wild-type EZH2 (NM_004456) or EZH2 Y641F, N, H, S or C mutants generated from the wild-type EZH2 construct, EED (NM_003797), Suz12 (NM_015355) and RbAp48 (NM_005610). The EED subunit contained an N-terminal FLAG tag that was used to purify the entire 4-component complex from sf9 cell lysates.
General Procedure for PRC2 Enzyme Assays on Peptide Substrates. The assays were all performed in a buffer consisting of 20 mM bicine (pH=7.6), 0.5 mM DTT, 0.005% BSG and 0.002% Tween20, prepared on the day of use. […] DMSO (1 μL) was added to columns 11, 12, 23, 24, rows A-H for the maximum signal control, and SAH, a known product and inhibitor of PRC2 (1 μL) was added to columns 11, 12, 23, 24, rows I-P for the minimum signal control. A cocktail (40 μL) containing the wild-type PRC2 enzyme and H3K27me0 peptide or any of the Y641 mutant enzymes and H3K27me2 peptide was added by Multidrop Combi (Thermo). The compounds were allowed to incubate with PRC2 for 30 min at 25° C., then a cocktail (10 μL) containing a mixture of non-radioactive and ^3H-SAM was added to initiate the reaction (final volume=51 μL). […] The assays were stopped by the addition of non-radioactive SAM (10 μL) to a final concentration of 600 μM, which dilutes the ^3H-SAM to a level where its incorporation into the peptide substrate is no longer detectable. 50 μL of the reaction in the 384-well polypropylene plate was then transferred to a 384-well Flashplate and the biotinylated peptides were allowed to bind to the streptavidin surface for at least 1 h before being washed three times with 0.1% Tween20 in a Biotek ELx405 plate washer. The plates were then read in a PerkinElmer TopCount platereader to measure the quantity of ^3H-labeled peptide bound to the Flashplate surface, measured as disintegrations per minute (dpm) or alternatively, referred to as counts per minute (cpm).
Where dpm=disintegrations per minute, cmpd=signal in assay well, and min and max are the respective minimum and maximum signal controls.
Where top and bottom are the normally allowed to float, but may be fixed at 100 or 0 respectively in a 3-parameter fit. The Hill Coefficient normally allowed to float but may also be fixed at 1 in a 3-parameter fit. Y is the % inhibition and X is the compound concentration.

Sequence of EZH2 (Q15910 other isoform, or with tags, fused parts or gaps): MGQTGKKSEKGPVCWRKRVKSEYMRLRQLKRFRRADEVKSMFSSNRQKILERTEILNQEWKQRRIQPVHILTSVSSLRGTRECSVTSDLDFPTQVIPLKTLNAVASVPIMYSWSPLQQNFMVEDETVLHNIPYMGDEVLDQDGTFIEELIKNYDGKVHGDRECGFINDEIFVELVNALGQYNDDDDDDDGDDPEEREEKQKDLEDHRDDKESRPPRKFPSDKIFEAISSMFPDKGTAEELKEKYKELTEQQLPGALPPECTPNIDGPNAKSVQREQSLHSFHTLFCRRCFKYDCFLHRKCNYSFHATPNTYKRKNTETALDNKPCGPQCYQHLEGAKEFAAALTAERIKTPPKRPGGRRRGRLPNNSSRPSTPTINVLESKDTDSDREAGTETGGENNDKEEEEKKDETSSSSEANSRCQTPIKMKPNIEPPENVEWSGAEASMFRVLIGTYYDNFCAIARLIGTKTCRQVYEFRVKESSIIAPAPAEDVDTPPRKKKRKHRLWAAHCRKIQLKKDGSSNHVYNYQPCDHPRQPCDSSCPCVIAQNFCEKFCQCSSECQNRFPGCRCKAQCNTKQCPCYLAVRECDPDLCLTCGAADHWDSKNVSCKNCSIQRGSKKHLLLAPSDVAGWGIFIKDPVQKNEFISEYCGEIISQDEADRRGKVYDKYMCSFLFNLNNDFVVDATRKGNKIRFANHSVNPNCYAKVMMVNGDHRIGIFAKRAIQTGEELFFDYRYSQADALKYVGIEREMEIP
Sequence of EZH2 (O75530 whole entry partner): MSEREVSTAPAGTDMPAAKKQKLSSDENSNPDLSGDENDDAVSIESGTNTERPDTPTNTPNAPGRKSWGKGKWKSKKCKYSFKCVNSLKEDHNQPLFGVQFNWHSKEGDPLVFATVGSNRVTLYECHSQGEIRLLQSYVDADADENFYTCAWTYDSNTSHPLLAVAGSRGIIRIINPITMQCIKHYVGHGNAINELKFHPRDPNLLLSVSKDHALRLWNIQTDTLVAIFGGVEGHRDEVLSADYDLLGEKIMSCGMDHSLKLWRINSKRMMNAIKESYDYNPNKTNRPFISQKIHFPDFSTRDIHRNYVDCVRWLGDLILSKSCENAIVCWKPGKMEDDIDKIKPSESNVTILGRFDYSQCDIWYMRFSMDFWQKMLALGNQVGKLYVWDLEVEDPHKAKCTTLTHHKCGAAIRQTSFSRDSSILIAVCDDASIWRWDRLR
Sequence of EZH2 (Q15022 whole entry partner): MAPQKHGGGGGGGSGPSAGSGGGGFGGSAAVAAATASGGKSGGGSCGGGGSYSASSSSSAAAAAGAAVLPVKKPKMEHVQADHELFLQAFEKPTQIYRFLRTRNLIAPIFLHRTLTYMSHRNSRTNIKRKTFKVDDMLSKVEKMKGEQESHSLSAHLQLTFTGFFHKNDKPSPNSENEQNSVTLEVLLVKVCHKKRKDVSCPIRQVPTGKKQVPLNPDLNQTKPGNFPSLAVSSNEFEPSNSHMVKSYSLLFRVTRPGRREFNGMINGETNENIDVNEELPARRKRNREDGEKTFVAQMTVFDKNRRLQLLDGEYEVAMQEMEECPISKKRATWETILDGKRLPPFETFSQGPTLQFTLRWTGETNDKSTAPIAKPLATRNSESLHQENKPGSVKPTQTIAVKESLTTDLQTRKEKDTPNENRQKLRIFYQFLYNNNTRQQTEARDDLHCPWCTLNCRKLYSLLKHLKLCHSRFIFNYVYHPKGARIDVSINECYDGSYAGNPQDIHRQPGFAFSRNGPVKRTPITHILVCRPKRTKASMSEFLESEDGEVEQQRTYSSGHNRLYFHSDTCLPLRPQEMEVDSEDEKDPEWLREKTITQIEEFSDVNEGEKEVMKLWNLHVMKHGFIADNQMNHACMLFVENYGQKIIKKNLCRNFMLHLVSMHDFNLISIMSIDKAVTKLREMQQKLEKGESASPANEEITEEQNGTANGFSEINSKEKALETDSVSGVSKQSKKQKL
Sequence of EZH2 (Q09028 whole entry partner): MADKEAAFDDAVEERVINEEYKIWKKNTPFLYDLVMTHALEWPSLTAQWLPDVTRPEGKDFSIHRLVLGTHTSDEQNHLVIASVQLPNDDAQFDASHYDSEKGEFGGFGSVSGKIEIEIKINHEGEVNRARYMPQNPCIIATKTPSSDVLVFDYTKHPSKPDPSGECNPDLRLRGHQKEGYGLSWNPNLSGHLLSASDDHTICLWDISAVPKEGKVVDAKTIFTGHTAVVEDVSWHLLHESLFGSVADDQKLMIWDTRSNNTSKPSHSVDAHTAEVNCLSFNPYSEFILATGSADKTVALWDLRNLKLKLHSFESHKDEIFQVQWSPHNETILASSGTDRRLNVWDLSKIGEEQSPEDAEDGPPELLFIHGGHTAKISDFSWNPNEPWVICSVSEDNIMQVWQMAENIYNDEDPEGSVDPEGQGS

| SMILES | IC50 [nM] |
| --- | --- |
| Cc1cc(C)c(CNC(=O)c2cc(-c3ccc(CN4CCOCC4)cc3Cl)cc3c2cnn3C2CCCC2)c(=O)[nH]1 [Compound C-32] | < 300 |
| Cc1cc(CN2CCN(C)CC2)c(CNC(=O)c2cc(Br)cc3c2cnn3C2CCCC2)c(=O)[nH]1 [Compound D-63] | 300 to 1000 |
| Cc1cc(C)c(CNC(=O)c2cc(C3=CCNCC3)nc3c2cnn3C(C)C)c(=O)[nH]1 [Compound B-60] | 300 to 1000 |
| Cc1cc(C)c(CNC(=O)c2cc(C3=CCN(C4CCNCC4)CC3)nc3c2cnn3C(C)C)c(=O)[nH]1 [Compound B-38] | 300 to 1000 |
| Cc1cc(C)c(CNC(=O)c2cc(-c3ccc(CN(C)C)cc3)cc3c2cnn3C2CCCC2)c(=O)[nH]1 [Compound C-3, 1-cyclopentyl-N-((4,6-dimethyl-2-oxo-1,2-dihydropyridin-3-yl)methyl)-6-(4-((dimethylamino)methyl)phenyl)-1H-indazole-4-carboxamide] | < 300 |
| Cc1cc(CN(C)CCCN(C)C)c(CNC(=O)c2cccc3c2cnn3C2CCCC2)c(=O)[nH]1 [Compound D-80] | 1000 to 3000 |
| Cc1cc(C)c(CNC(=O)c2cc(C3=CCN(C(=O)C4CCCNC4)CC3)nc3c2cnn3C(C)C)c(=O)[nH]1 (stereo not drawn) [Compound B-28, N-((4,6-dimethyl-2-oxo-1,2-dihydropyridin-3-yl)methyl)-1-isopropyl-6-(1-(piperidine-3-carbonyl)-1,2,3,6-tetrahydropyridin-4-yl)-1H-pyrazolo[3,4-b]pyridine-4-carboxamide] | < 300 |
| Cc1cc(C)c(CNC(=O)c2cc(C3=CCN(C(=O)C4CCN(C)C4)CC3)nc3c2cnn3C(C)C)c(=O)[nH]1 (stereo not drawn) [Compound B-31, N-((4,6-dimethyl-2-oxo-1,2-dihydropyridin-3-yl)methyl)-1-isopropyl-6-(1-(1-methylpyrrolidine-3-carbonyl)-1,2,3,6-tetrahydropyridin-4-yl)-1H-pyrazolo[3,4-b]pyridine-4-carboxamide] | < 300 |
| Cc1cc(C)c(CNC(=O)c2cc(C=O)nc3c2cnn3C(C)C)c(=O)[nH]1 [Compound B-22, N-((4,6-dimethyl-2-oxo-1,2-dihydropyridin-3-yl)methyl)-6-formyl-1-isopropyl-1H-pyrazolo[3,4-b]pyridine-4-carboxamide] | < 300 |
| Cc1cc(C)c(CNC(=O)c2ccnc3c2cnn3C(C)C)c(=O)[nH]1 [Compound B-127] | 3000 to 10000 |
| Cc1cc(C)c(CNC(=O)c2cc(Br)cc3c2cnn3C2CCN(C(=O)C(C)(C)C)CC2)c(=O)[nH]1 [Compound D-13] | < 300 |
| Cc1cc(C)c(CNC(=O)c2cc(-c3cccc(CN)c3)nc3c2cnn3C(C)C)c(=O)[nH]1 [Compound A-32] | 300 to 1000 |
| Cc1cc(C)c(CNC(=O)c2cc(C3=CCN(CCC(F)(F)F)CC3)nc3c2cnn3C(C)C)c(=O)[nH]1 [Compound B-84] | 300 to 1000 |
| Cc1cc(C)c(CNC(=O)c2cc(C3=CCN(C4CCN(CCS(C)(=O)=O)CC4)CC3)nc3c2cnn3C(C)C)c(=O)[nH]1 [Compound B-33, N-((4,6-dimethyl-2-oxo-1,2-dihydropyridin-3-yl)methyl)-1-isopropyl-6-(1-(1-(2-(methylsulfonyl)ethyl)piperidin-4-yl)-1,2,3,6-tetrahydropyridin-4-yl)-1H-pyrazolo[3,4-b]pyridine-4-carboxamide] | < 300 |
| Cc1cc(C)c(CNC(=O)c2cc(C3=CC(C)(C)NC(C)(C)C3)nc3c2cnn3C2CCC2)c(=O)[nH]1 [Compound B-14, 1-cyclobutyl-N-((4,6-dimethyl-2-oxo-1,2-dihydropyridin-3-yl)methyl)-6-(2,2,6,6-tetramethyl-1,2,3,6-tetrahydropyridin-4-yl)-1H-pyrazolo[3,4-b]pyridine-4-carboxamide] | 300 to 1000 |
| CCn1ncc2c(C(=O)NCc3c(C)cc(C)[nH]c3=O)cc(C3=CC(C)(C)NC(C)(C)C3)nc21 [Compound B-131] | 3000 to 10000 |
| Cc1cc(C)c(CNC(=O)c2cc(N(C)CC(O)CO)nc3c2cnn3C(C)C)c(=O)[nH]1 (stereo not drawn) [Compound B-134] | 3000 to 10000 |
| Cc1cc(CN(C)CCCN(C)C)c(CNC(=O)c2cc(Br)cc3c2cnn3C2CCCC2)c(=O)[nH]1 [Compound D-62] | 300 to 1000 |
